Test results taken from US20240148757A1, “USE OF DIHYDROOROTATE DEHYDROGENASE (DHODH) INHIBITORS TO TARGET FERROPTOSIS IN CANCER THERAPY” (BOARD OF REGENTS, THE UNIVERSITY OF TEXAS SYSTEM, priority 2021, published 2024).

Legend:
DHODH = DHODH (Homo sapiens, UniProt Q02127); details: cited from earlier work
HT-1080 xenograft tumors = assay: HT-1080 cell line-derived xenograft model; type: in vivo, athymic nude mice
Experimental: (§1) Fresh tumor tissues were fixed in 10% neutral buffered formalin overnight, washed once with PBS, and stored in 70% ethanol at 4° C. The tissues were dehydrated and embedded in paraffin by the Research Histology Core Laboratory (MD Anderson Cancer Center) according to standard protocols. Embedded tissues were sectioned at a thickness of 5 μm for H&E or immunohistochemistry (IHC) analysis. IHC analysis was performed as previously described (Gan, B., et al., Cancer Cell 18, 472-484 (2010); Gan, B., et al., J Cell Biol 175, 121-133 (2006)). Briefly, the primary antibodies, including ki-67 (1:500, 9027s, Cell Signaling Technology), cleaved-caspase 3 (1:500, 9661s, Cell Signaling Technology), or 4-HNE (1:400, ab46545, Abcam) were incubated overnight at 4° C. Staining was performed using the Vectastain elite ABC kit and DAB peroxidase substrate kit (Vector laboratories). Images were randomly taken from the […] (five images per tumor) at ×200 magnification using an Olympus BX43 microscope. All the xenograft experiments were performed in accordance with a protocol approved by the Institutional Animal Care and Use Committee and Institutional Review Board at The University of Texas MD Anderson Cancer Center. The study is compliant with all relevant ethical regulations regarding animal research. Female 4- to 6-week-old athymic nude mice (Foxn1^nu/Foxn1^nu) were purchased from the Experimental Radiation Oncology Breeding Core Facility at MD Anderson Cancer Center and housed in the Animal Care Facility at the Department of Veterinary Medicine and Surgery at MD Anderson. Cancer cell lines were suspended and counted in cold phosphate-buffered saline (PBS), and 5×10^6 HT-1080 or 1×10^7 NCI-H226 cells were injected into mice subcutaneously. When the tumor reached 50-100 mm^3, the mice were assigned randomly into different treatment groups. Brequinar or sulfasalazine was dissolved in dimethyl sulfoxide (DMSO) and diluted in PBS. Brequinar was intraperitoneally injected into mice at a dose of 30 mg/kg every three days. Sulfasalazine was intraperitoneally injected daily at a dose of 100 mg/kg. Liproxstatin-1 diluted in PBS was intraperitoneally injected daily at a dose of 10 mg/kg. The daily injection of brequinar, sulfasalazine, or liproxstatin-1 was continued until the endpoint as indicated in the corresponding figures. The tumor volume was measured every 3 days until the endpoint and calculated according to the equation volume=length×width^2×½.

[1] = system: GPX4^low NCI-H226 xenografts; assay: NCI-H226 xenograft model; type: in vivo, athymic nude mice; details: brequinar 30 mg/kg intraperitoneally every three days
Experimental: All the xenograft experiments were performed in accordance with a protocol approved by the Institutional Animal Care and Use Committee and Institutional Review Board at The University of Texas MD Anderson Cancer Center. The study is compliant with all relevant ethical regulations regarding animal research. Female 4- to 6-week-old athymic nude mice (Foxn1^nu/Foxn1^nu) were purchased from the Experimental Radiation Oncology Breeding Core Facility at MD Anderson Cancer Center and housed in the Animal Care Facility at the Department of Veterinary Medicine and Surgery at MD Anderson. Cancer cell lines were suspended and counted in cold phosphate-buffered saline (PBS), and 5×10^6 HT-1080 or 1×10^7 NCI-H226 cells were injected into mice subcutaneously. When the tumor reached 50-100 mm^3, the mice were assigned randomly into different treatment groups. Brequinar or sulfasalazine was dissolved in dimethyl sulfoxide (DMSO) and diluted in PBS. Brequinar was intraperitoneally injected into mice at a dose of 30 mg/kg every three days. Sulfasalazine was intraperitoneally injected daily at a dose of 100 mg/kg. Liproxstatin-1 diluted in PBS was intraperitoneally injected daily at a dose of 10 mg/kg. […] The tumor volume was measured every 3 days until the endpoint and calculated according to the equation volume=length×width^2×½.

[2] = system: GPX4^low patient-derived xenografts (PDXs); assay: GPX4^low patient-derived xenograft model; type: in vivo, NSG mice; details: brequinar 30 mg/kg intraperitoneally every three days
Description: PDXs were generated in accordance with protocols approved by the Institutional Review Board at The University of Texas MD Anderson Cancer Center. Informed consent was obtained from the patients and the study is compliant with all relevant ethical regulations regarding research involving human participants. All the NOD scid gamma (NSG) mice were purchased from the Experimental Radiation Oncology Breeding Core Facility at MD Anderson Cancer Center and housed in the Animal Care Facility at the Department of Veterinary Medicine and Surgery at MD Anderson Cancer Center. PDX model used in this study was originally obtained from lung cancer PDX platform at MD Anderson Cancer Center. PDX experiments were performed as previously described (Liu, X., et al., Nat Cell Biol 22, 476-486 (2020)). Briefly, PDX tumors in cold DMEM media were minced into fragments 1-2 mm^3 in volume. Then each PDX tumor fragment was subcutaneously inoculated into the dorsal flank of NSG mice. When the tumors reached 50-100 mm 3 in volume, the mice were assigned randomly into different treatment groups for the treatment of brequinar, sulfasalazine, and/or liproxstatin-1 as described under cell line-derived xenograft model. The tumor volume was measured every 3 days until the endpoint and calculated according to the equation volume=length×width^2×½.

GPX4-knockdown tumors = assay: GPX4-knockdown HT-1080 xenograft model; type: in vivo, athymic nude mice
Experimental: as §1

solid tumors = details: oncology clinical trials; cited from earlier work
GPX4^high HT-1080 cells = assay: Cell viability / cell death (ferroptosis) in HT-1080 cells; type: cell-based, human; details: wild-type (WT) cells, BQR 500 μM, 4 hours
Experimental: Briefly, cells were seeded onto 96-well plates at a density of 2×10^4 per well. The next day, cells were treated with GPX4 or DHODH inhibitors for 4 hours. Subsequently, cells exposed to 10 μl CCK-8 reagent (100 μl medium per well) for 1 hour at 37° C., 5% CO2 in an incubator. The absorbance at a wavelength of 450 nm was determined using a FLUOstar Omega microplate reader (BMG Labtech).
For propidium iodide-staining, cells were seeded at a density of 50% confluence into 12-well plates. The next day, cells were treated with different reagents. To measure cell death, the cells were collected (including floating dead cells), stained with 5 μg/ml propidium iodide and the percentage of the propidium iodide-positive dead cell population was analyzed using the flow cytometer BD Accuri C6 (BD Biosciences) and an FL2 detector. A minimum of 10,000 single cells were analyzed per well and all experiments were carried out at least in triplicate.

[3] = brequinar 30 mg/kg intraperitoneally every three days

Chain of DHODH (Q02127 whole entry, species assumed): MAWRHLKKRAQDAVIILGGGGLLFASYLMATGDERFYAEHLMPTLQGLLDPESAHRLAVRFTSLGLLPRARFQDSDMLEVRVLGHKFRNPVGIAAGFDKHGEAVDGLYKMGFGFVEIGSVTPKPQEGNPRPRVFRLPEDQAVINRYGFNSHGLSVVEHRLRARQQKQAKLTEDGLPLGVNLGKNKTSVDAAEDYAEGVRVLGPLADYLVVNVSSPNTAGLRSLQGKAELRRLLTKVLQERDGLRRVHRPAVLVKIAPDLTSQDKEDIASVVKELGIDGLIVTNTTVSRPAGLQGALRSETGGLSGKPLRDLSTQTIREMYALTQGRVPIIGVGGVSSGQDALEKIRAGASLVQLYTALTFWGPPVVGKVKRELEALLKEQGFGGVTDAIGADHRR

Cc1c(-c2ccc(-c3ccccc3F)cc2)nc2ccc(F)cc2c1C(=O)O [brequinar]
DHODH inhibitor potency and specificity (DHODH): potent and specific | tumor growth (HT-1080 xenograft tumors; [3]): did not affect the growth | 4-HNE staining (lipid peroxidation marker) (HT-1080 xenograft tumors; control tumors): but not in control tumors | cleaved caspase-3 or Ki67 staining (HT-1080 xenograft tumors; control xenograft samples): did not affect | tumor growth [1]: significantly suppressed | tumor growth [2]: significantly suppressed | 4-HNE staining (lipid peroxidation marker) (GPX4-knockdown tumors; GPX4-knockdown tumors): dramatically increased | cleaved caspase-3 or Ki67 staining (GPX4-knockdown tumors; GPX4-knockdown xenograft samples): did not affect | tumor growth (sensitivity to DHODH inhibition) (GPX4-knockdown tumors; [3]): significantly sensitized | efficacy against solid tumors (solid tumors): lacks broad efficacy against solid tumors | tolerability in patients (solid tumors): well-tolerated | effect on RSL3-induced ferroptosis (GPX4^high HT-1080 cells): promotes RSL3-induced ferroptosis
